This note sets out measurements from patent US20130178413A1, “HCV NS3 PROTEASE INHIBITORS” (priority 2010, published 2013).

Assay [1] deals with NS3/4A protease gt 1b A156V (Hepatitis C virus genotype 1b, UniProt P26663, A1182V). Put plainly: HCV NS3 protease time-resolved fluorescence (TRF) assay, NS3/4A inhibitory activity (Ki), gt 1b A156V mutant. The format is biochemical, hepatitis C virus (HCV). In a few lines:
(§1)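 NS3/4A protease (gt 1b, 1b A156V, 3a) pre-incubated 30 min with inhibitor in 50 mM HEPES pH 7.5, 150 mM NaCl, 15% glycerol, 0.15% Triton X-100, 10 mM DTT, 0.1% PEG 8000; 100 nM TRF peptide substrate, 1 h at room temperature, quenched with MES pH 5.5. Time-resolved fluorescence (ex 340/em 615 nm); four-parameter IC50 converted to Ki via IC50=Ki(1+[S]/KM).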

The target of a further assay is NS3/4A protease gt 1b (Hepatitis C virus genotype 1b, UniProt P26663). Nature of the assay: HCV NS3 protease time-resolved fluorescence (TRF) assay, NS3/4A inhibitory activity (Ki), gt 1b. It is filed as biochemical. The note with it: genotype 1b NS3/4A; read-out: Enzyme Activity gt 1b Ki. In a few lines: as §1
Another assay deals with gt 1b Replicon. Put plainly: HCV replicon assay, compound inhibitory potency (Replicon EC50). It is filed as cell-based. The note with it: Hepatitis C virus, GT1B. The procedure, abridged: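 Stable replicon-harboring cells (neomycin phosphotransferase, some luciferase:Neor fusion) plated with compound dilution series without G418, incubated 24-48 h. Read-out: RNA by 32P-probe protection or TaqMan normalized to cyclophilin A RNA, or luciferase activity; EC50 as percent of DMSO control, four-parameter fit.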
Background: A replicon is a self-replicating genome or part of one, used to study replication in cells.

Another assay has as its target NS3/4A protease gt 3a (Hepatitis C virus genotype 3a, UniProt Q81258). Put plainly: HCV NS3 protease time-resolved fluorescence (TRF) assay, NS3/4A inhibitory activity (Ki), gt 3a. The note with it: genotype 3a NS3/4A; read-out: Enzyme Activity gt 3a Ki. It is filed as biochemical. The procedure, abridged:
as §1

[2] abbreviates: 10% Fetal Bovine Serum, read-out: gt 1b Replicon EC50 10% FBS.
[3] abbreviates: 50% Normal Human Serum, read-out: gt 1b Replicon EC50 50% NHS.

The structures appear in SMILES notation. pEC50, pKi: −log10 of the molar value. Read-outs that look alike come from different tables or passages of the source.

As for `C=C[C@@H]1C[C@]1(NC(=O)[C@@H]1C[C@@H]2CN1C(=O)[C@H](C1CCCC1)NC(=O)O[C@]1(C)C[C@H]1CC/C=C/Cn1c(nc3cc(C)ccc3c1=O)O2)C(=O)NS(=O)(=O)C1CC1` [Example I-23, (1aR,5S,8S,10R,20E,23aR)-5-cyclopentyl-N-{(1R,2S)-1-[(cyclopropylsulfonyl)carbamoyl]-2-ethenylcyclopropyl}-1a,14-dimethyl-3,6,17-trioxo-1,1a,3,4,5,6,9,10,19,22,23,23a-dodecahydro-8H,17H-7,10-methano cyclopropa[18,19][1, 10,3,6,12]dioxatriaza cyclononadecino[11,12-b]quinazoline-8-carboxamide], the negative-log Ki (pKi) (commonly the negative decadic logarithm of the Ki, by convention in mol/L) in assay [1] is 8.92; at NS3/4A protease gt 1b, 10.70; at NS3/4A protease gt 3a it was 9.00. The pEC50 (usually −log10 of the EC50, conventionally taken in molar units) with gt 1b Replicon (setting [2]) is 8.70; with gt 1b Replicon (setting [3]), 8.22.

On to `C=C[C@@H]1C[C@]1(NC(=O)[C@@H]1C[C@@H]2CN1C(=O)[C@H](C1CCCC1)NC(=O)O[C@]1(C)C[C@H]1CC/C=C/Cn1c(nc3cc(C)ccc3c1=O)O2)C(=O)NS(=O)(=O)C1(C)CC1` [Example I-24, (1aR,5S,8S,10R,20E,23aR)-5-cyclopentyl-N-[(1R,2S)-2-ethenyl-1-{[(1-methylcyclopropyl)sulfonyl]carbamoyl}cyclopropyl]-1a,14-dimethyl-3,6,17-trioxo-1,1a,3,4,5,6,9,10,19,22,23,23a-dodecahydro-8H,17H-7,10-methanocyclo propa[18,19][1,10,3,6,12] dioxatriazacyclo nonadecino[11,12-b]quinazoline-8-carboxamide], for which the values for the negative logarithm of the Ki (pKi) (in assay [1]; on NS3/4A protease gt 1b; at NS3/4A protease gt 3a) were 9.05, 10.70 and 9.15, respectively. In addition, the negative-log EC50 (pEC50) in the assay on gt 1b Replicon (setting [2]) was 8.70; in the assay on gt 1b Replicon (setting [3]), 8.07.

Regarding `C=C[C@@H]1C[C@]1(NC(=O)[C@@H]1C[C@@H]2CN1C(=O)[C@H](C1CCCC1)NC(=O)O[C@]1(C)C[C@H]1CC/C=C/Cn1c(nc3cc(Cl)ccc3c1=O)O2)C(=O)NS(=O)(=O)C1CC1` [Example I-26, (1aR,5S,8S,10R,20E,23aR)-14-chloro-5-cyclopentyl-N-{(1R,2S)-1-[(cyclopropylsulfonyl)carbamoyl]-2-ethenylcyclopropyl}-1a-methyl-3,6,17-trioxo-1,1a,3,4,5,6,9, 10,19,22,23,23a-dodecahydro-8H,17H-7,10-methano cyclopropa[18,19][1,10,3,6,12]dioxatriaza cyclononadecino[11,12-b]quinazoline-8-carboxamide], the pKi in assay [1] is 8.80; on NS3/4A protease gt 1b, 10.70; on NS3/4A protease gt 3a, 9.10. Besides, the pEC50 is 8.52 in the assay with gt 1b Replicon (setting [2]) and 7.89 in the assay on gt 1b Replicon (setting [3]).

For `C=C[C@@H]1C[C@]1(NC(=O)[C@@H]1C[C@@H]2CN1C(=O)[C@H](C1CCCC1)NC(=O)O[C@]1(C)C[C@H]1CCCCCn1c(nc3cc(C)ccc3c1=O)O2)C(=O)NS(=O)(=O)C1CC1` [Example I-27, (1aR,5S,8S,10R,23aR)-5-cyclopentyl-N-{(1R,2S)-1-[(cyclopropylsulfonyl)carbamoyl]-2-ethenylcyclopropyl}-1a,14-dimethyl-3,6,17-trioxo-1,1a,3,4,5,6,9, 10,19,22,21,22,23,23a-tetradecahydro-8H,17H-7,10-methanocyclopropa[18, 19][1,10,3,6,12]dioxatri azacyclononadecino [11,12-b]quinazoline-8-carboxamide], the pKi was 8.39 in assay [1], 10.40 at NS3/4A protease gt 1b and 8.55 on NS3/4A protease gt 3a. The pEC50 was 8.70 in the assay on gt 1b Replicon (setting [2]) and 8.22 with gt 1b Replicon (setting [3]).

Turning to `C=C[C@@H]1C[C@]1(NC(=O)[C@@H]1C[C@@H]2CN1C(=O)[C@H](C1CCCC1)NC(=O)O[C@]1(C)C[C@H]1CCCCCc1nc3ccccc3nc1O2)C(=O)NS(=O)(=O)C1CC1` [Example I-28, (1aR,5S,8S,10R,22aR)-5-cyclopentyl-N-{(1R,2S)-1-[(cyclopropylsulfonyl)carbamoyl]-2-ethenylcyclopropyl}-1a-methyl-3,6-dioxo-1,1a,3,4,5,6,9,10,18,19, 20,21,22,22a-tetradecahydro-8H-7,10-methanocyclo propa[18,19][1,10,3,6] dioxadiazacyclonona decino[11,12-b]quinoxaline-8-carboxamide], the pKi is 8.57 in assay [1], 10.40 at NS3/4A protease gt 1b and 8.49 at NS3/4A protease gt 3a. The pEC50 is 8.70 with gt 1b Replicon (setting [2]) and 8.00 in the assay on gt 1b Replicon (setting [3]).

Turning to `C=C[C@@H]1C[C@]1(NC(=O)[C@@H]1C[C@@H]2CN1C(=O)[C@H](C1CCCC1)NC(=O)O[C@]1(C)C[C@H]1CCCCCc1nc3ccccc3nc1O2)C(=O)NS(=O)(=O)C1(C)CC1` [Example I-29, (1aR,5S,8S,10R,22aR)-5-cyclopentyl-N-[(1R,2S)-2-ethenyl-1-{[(1-methylcyclopropyl)sulfonyl]carbamoyl}cyclopropyl]-1a-methyl-3,6-dioxo-1,1a,3,4,5,6,9,10,18,19, 20,21,22,22a-tetradecahydro-8H-7,10-methanocyclo propa[18,19][1,10,3,6] dioxadiazacyclonona decino[11,12-b]quinoxaline-8-carboxamide], the pKi in assay [1] was 8.77; at NS3/4A protease gt 1b, 10.40; at NS3/4A protease gt 3a, 8.51. Also, the pEC50 in the assay with gt 1b Replicon (setting [2]) is 8.52; with gt 1b Replicon (setting [3]) it was 8.05.

`C=C[C@@H]1C[C@]1(NC(=O)[C@@H]1C[C@@H]2CN1C(=O)[C@H](C1CCCC1)NC(=O)O[C@]1(C)C[C@H]1CCCCCc1nc3cccc(OC)c3nc1O2)C(=O)NS(=O)(=O)C1CC1` [Example I-30, (1aR,5S,8S,10R,22aR)-5-cyclopentyl-N-{(1R,2S)-1-[(cyclopropylsulfonyl)carbamoyl]-2-ethenylcyclopropyl}-13-methoxy-1a-methyl-3,6-dioxo-1,1a,3,4,5,6,9,10,18,19,20,21,22,22a-tetradecahydro-8H-7,10-methanocyclo propa[18,19][1,10,3,6] dioxadiazacyclonona decino[11,12-b]quinoxaline-8-carboxamide]: the pKi in assay [1] was 8.72; at NS3/4A protease gt 1b, 10.70; at NS3/4A protease gt 3a, 8.66. Besides, the figures for the pEC50 in the assay on gt 1b Replicon (setting [2]) and in the assay with gt 1b Replicon (setting [3]) were 9.00 and 8.30, respectively.

`CC[C@@H]1C[C@]1(NC(=O)[C@@H]1C[C@@H]2CN1C(=O)[C@H](C1CCCC1)NC(=O)O[C@]1(C)C[C@H]1CC/C=C/Cn1c(nc3cc(C)ccc3c1=O)O2)C(=O)NS(=O)(=O)C1CC1` [Example I-31, (1aR,5S,8S,10R,20E,23aR)-5-cyclopentyl-N-{(1R,2R)-1-[(cyclopropylsulfonyl)carbamoyl]-2-ethylcyclopropyl}-1a,14-dimethyl-3,6,17-trioxo-1,1a,3,4,5,6,9,10,19,22,23,23a-dodecahydro-8H,17H-7,10-methanocyclo propa[18,19][1,10,3,6, 12]dioxatriazacyclo nonadecino[11,12-b]quinazoline-8-carboxamide]: the negative logarithm of the Ki (pKi) in assay [1] was 7.88; on NS3/4A protease gt 1b, 10.00; at NS3/4A protease gt 3a, 8.28. In addition, the results for the pEC50 in the assay on gt 1b Replicon (setting [2]) and with gt 1b Replicon (setting [3]) were 8.40 and 8.00, respectively.

`C=C[C@@H]1C[C@]1(NC(=O)[C@@H]1C[C@@H]2CN1C(=O)[C@H](C(C)(C)C)NC(=O)O[C@]1(C)C[C@H]1CCC/C=C/c1cccc3c1CN(C3)C(=O)O2)C(=O)NS(=O)(=O)C1(C)CC1` [Example I-32, (1aR,5S,8S,10R,19E,23aR)-5-tert-butyl-N-[(1R,2S)-2-ethenyl-1-{[(1-methylcyclopropyl)sulfonyl]carbamoyl}cyclopropyl]-1a-methyl-3,6,12-trioxo-1a,3,4,5,6,9, 10,14,21,22,23,23a-dodecahydro-1H,8H-7,10:13,15-dimethanocyclopropa [n][4,13,2,8,11]benzo dioxatriazacyclo docosine-8(12H)-carboxamide]: the pKi in assay [1] was 9.00; on NS3/4A protease gt 1b, 10.52; at NS3/4A protease gt 3a, 8.74. For the same compound, the negative-log EC50 (pEC50) with gt 1b Replicon (setting [2]) is 9.00; in the assay with gt 1b Replicon (setting [3]), 7.96.
